One experiment has as its system HUVEC. The experiment is described as follows: Antiangiogenic activity in HUVEC assessed as inhibition of cell proliferation. The class given is functional, cell-based. Particulars: Homo sapiens.
The subject of a further experiment is MDA-MB-231. The experiment is described as follows: Antiproliferative activity against human MDA-MB-231 cells. The class given is functional, cell-based.

We go through 25 compounds from ChEMBL document CHEMBL1154314, “Synthesis and antitumor activities of 3-modified 2-methoxyestradiol analogs” (Bioorg Med Chem Lett, 2009).

Each structure is given as a SMILES string.

In general, IC50 refers to the midpoint of a concentration-inhibition curve.

With `COc1cc2c(cc1NC=O)CC[C@@H]1[C@@H]2CC[C@]2(C)[C@@H](O)CC[C@@H]12`, the IC50 with HUVEC was 0.07 µM; in the experiment with MDA-MB-231, 0.78 µM.
For `COc1cc2c(cc1S)CC[C@@H]1[C@@H]2CC[C@]2(C)[C@@H](O)CC[C@@H]12`, the concentration for half-maximal inhibition (IC50) with HUVEC is 12.9 µM; with MDA-MB-231, 56.2 µM.
For `C=Cc1cc2c(cc1OC)[C@H]1CC[C@]3(C)[C@@H](O)CC[C@H]3[C@@H]1CC2`, in that order: 1.96 µM and 8.93 µM.
For `COc1cc2c(cc1C(N)=O)CC[C@@H]1[C@@H]2CC[C@]2(C)[C@@H](O)CC[C@@H]12`, the values for the 50% inhibitory concentration (IC50) in the experiment with HUVEC and in the experiment with MDA-MB-231 were 2.59 µM and 2.36 µM, respectively.
As to `COc1cc2c(cc1N)CC[C@@H]1[C@@H]2CC[C@]2(C)[C@@H](O)CC[C@@H]12`, the results for the IC50 in the experiment with HUVEC and in the experiment with MDA-MB-231 were 2.32 µM and 2.48 µM, respectively.
Turning to `COC(=O)Nc1cc2c(cc1OC)[C@H]1CC[C@]3(C)[C@@H](O)CC[C@H]3[C@@H]1CC2`, the concentration for half-maximal inhibition (IC50) in the experiment on HUVEC was 5.92 µM; in the experiment with MDA-MB-231, 17.6 µM.
With `COc1cc2c(cc1OS(=O)(=O)C(F)(F)F)CC[C@@H]1[C@@H]2CC[C@]2(C)[C@@H](O)CC[C@@H]12`, the IC50 amounted to 3.27 µM with HUVEC and 21.4 µM in the experiment with MDA-MB-231.
Take `COc1cc2c(cc1Cl)CC[C@@H]1[C@@H]2CC[C@]2(C)[C@@H](O)CC[C@@H]12`: the IC50 stood at 7.45 µM with HUVEC and 26.9 µM in the experiment on MDA-MB-231.
On to `COc1cc2c(cc1Br)CC[C@@H]1[C@@H]2CC[C@]2(C)[C@@H](O)CC[C@@H]12`, for which the IC50 amounted to 9.13 µM with HUVEC and 27.5 µM in the experiment on MDA-MB-231.
As for `COc1cc2c(cc1OC)[C@H]1CC[C@]3(C)[C@@H](O)CC[C@H]3[C@@H]1CC2`, the 50% inhibitory concentration (IC50) is 31.5 µM in the experiment with HUVEC and 43.7 µM in the experiment with MDA-MB-231.
Regarding `CCc1cc2c(cc1OC)[C@H]1CC[C@]3(C)[C@@H](O)CC[C@H]3[C@@H]1CC2`, the IC50 in the experiment on HUVEC is 5.44 µM; with MDA-MB-231, 46.9 µM.
The like results for `COc1cc2c(cc1CO)CC[C@@H]1[C@@H]2CC[C@]2(C)[C@@H](O)CC[C@@H]12` were, in that order, 28.2 µM and 55.6 µM.
Consider `COc1ccc2c(c1)[C@H]1CC[C@]3(C)[C@@H](O)CC[C@H]3[C@@H]1CC2`, for which the half-maximal inhibitory concentration (IC50) came to 22.1 µM with HUVEC and 62 µM in the experiment with MDA-MB-231.
For the compound `COc1cc2c(cc1N(C)C)CC[C@@H]1[C@@H]2CC[C@]2(C)[C@@H](O)CC[C@@H]12`, the half-maximal inhibitory concentration (IC50) in the experiment on HUVEC was 2.82 µM; in the experiment with MDA-MB-231, 103 µM.
For `COc1cc2c(cc1NC(N)=O)CC[C@@H]1[C@@H]2CC[C@]2(C)[C@@H](O)CC[C@@H]12`, the concentration for half-maximal inhibition (IC50) is 0.59 µM with HUVEC and 0.65 µM in the experiment on MDA-MB-231.
For the compound `COc1cc2c(cc1C#N)CC[C@@H]1[C@@H]2CC[C@]2(C)[C@@H](O)CC[C@@H]12`, the values for the half-maximal inhibitory concentration (IC50) with HUVEC and with MDA-MB-231 were 2.65 µM and 8.98 µM, respectively.
Consider `COc1cc2c(cc1NS(N)(=O)=O)CC[C@@H]1[C@@H]2CC[C@]2(C)[C@@H](O)CC[C@@H]12`, for which the IC50 in the experiment with HUVEC was 3.88 µM; in the experiment on MDA-MB-231, 9.47 µM.
Turning to `COc1cc2c(cc1NS(=O)(=O)C(F)(F)F)CC[C@@H]1[C@@H]2CC[C@]2(C)[C@@H](O)CC[C@@H]12`, the half-maximal inhibitory concentration (IC50) with HUVEC was 46.2 µM; in the experiment on MDA-MB-231, > 100 µM.
Regarding `CNC(=O)c1cc2c(cc1OC)[C@H]1CC[C@]3(C)[C@@H](O)CC[C@H]3[C@@H]1CC2`, the 50% inhibitory concentration (IC50) in the experiment on HUVEC and in the experiment on MDA-MB-231 was > 100 µM throughout.
On to `COc1cc2c(cc1C(=O)O)CC[C@@H]1[C@@H]2CC[C@]2(C)[C@@H](O)CC[C@@H]12`, for which the IC50 with HUVEC and in the experiment with MDA-MB-231 was > 100 µM each time.
For `COc1cc2c(cc1NC#N)CC[C@@H]1[C@@H]2CC[C@]2(C)[C@@H](O)CC[C@@H]12`, the 50% inhibitory concentration (IC50) in the experiment with HUVEC is 0.47 µM; with MDA-MB-231, 0.62 µM.
`COC(=O)c1cc2c(cc1OC)[C@H]1CC[C@]3(C)[C@@H](O)CC[C@H]3[C@@H]1CC2`: the IC50 in the experiment with HUVEC and in the experiment with MDA-MB-231 was > 100 µM each time.
Regarding `COc1cc2c(cc1C(=O)N(C)C)CC[C@@H]1[C@@H]2CC[C@]2(C)[C@@H](O)CC[C@@H]12`, the IC50 in the experiment on HUVEC and in the experiment on MDA-MB-231 was > 10 µM each time.
Consider `COc1cc2c(cc1F)CC[C@@H]1[C@@H]2CC[C@]2(C)[C@@H](O)CC[C@@H]12`, for which the IC50 in the experiment on HUVEC was 2.1 µM; in the experiment with MDA-MB-231, 2.94 µM.
Regarding `COc1cc2c(cc1NC(C)=O)CC[C@@H]1[C@@H]2CC[C@]2(C)[C@@H](O)CC[C@@H]12`, the IC50 in the experiment with HUVEC worked out at 1.65 µM; with MDA-MB-231, 3.95 µM.
